{
  "source": "ChEMBL document CHEMBL4041543",
  "about": "“Light induced drug release from a folic acid-drug conjugate” (Bioorg Med Chem Lett, 2017)",
  "experiment": "Drug level treated with Photo Dox-Fol conjugate assessed as photolysis-mediated compound release in presence of 1.1 J/cm2 UV light irradiation by RP-HPLC method",
  "data": [
    {"smiles": "COc1cccc2c1C(=O)c1c(O)c3c(c(O)c1C2=O)C[C@@](O)(C(=O)CO)C[C@@H]3O[C@H]1C[C@H](N)[C@H](O)[C@H](C)O1", "values": [
      {"measurement": "Drug metabolism", "result": "Metabolite detected"}
    ]}
  ]
}
